We go through 3 molecules from US8202996B2, “Crystalline forms of N-(tert-butoxycarbonyl)-3-methyl-L-valyl-(4R)-4-((7-chloro-4-methoxy-1-isoquinolinyl)oxy)-N- ((1R,2S)-1-((cyclopropylsulfonyl)carbamoyl)-2-vinylcyclopropyl)-L-prolinamide” (Bristol-Myers Squibb Company, priority 2007, dated 2012).

The nature of data set [1]: Crystal form in aqueous solution / suspension in water. The class given is physicochemical. The following applies: aqueous solutions / suspended in water.
Data set [2] in a line: Interconversion of Forms H-1 and T1F-1/2 as a function of relative humidity. The class given is physicochemical. The following applies: solid state, FIG. 1.

Consider `C=C[C@@H]1C[C@]1(NC(=O)[C@@H]1C[C@@H](Oc2ncc(OC)c3ccc(Cl)cc23)CN1C(=O)[C@@H](NC(=O)OC(C)(C)C)C(C)(C)C)C(=O)NS(=O)(=O)C1CC1` [Compound (I), N-(tert-butoxycarbonyl)-3-methyl-L-valyl-(4R)-4-((7-chloro-4-methoxy-1-isoquinolinyl)oxy)-N-((1R,2S)-1-((cyclopropylsulfonyl)carbamoyl)-2-vinylcyclopropyl)-L-prolinamide], for which the “form stability in water” value in data set [1] was “exists as H-1”. In addition, the “relative humidity at which Compound (I) exists as a mixture of H-1 and T1F-1/2” value in data set [2] is 15-45 % relative humidity. On to `C=C[C@@H]1C[C@]1(NC(=O)[C@@H]1C[C@@H](Oc2ncc(OC)c3ccc(Cl)cc23)CN1C(=O)[C@@H](NC(=O)OC(C)(C)C)C(C)(C)C)C(=O)NS(=O)(=O)C1CC1` [Form H-1, N-(tert-butoxycarbonyl)-3-methyl-L-valyl-(4R)-4-((7-chloro-4-methoxy-1-isoquinolinyl)oxy)-N-((1R,2S)-1-((cyclopropylsulfonyl)carbamoyl)-2-vinylcyclopropyl)-L-prolinamide], for which, in data set [2], the “relative humidity at which Compound (I) exists as this crystalline form” value is above 45 % relative humidity. Regarding `C=C[C@@H]1C[C@]1(NC(=O)[C@@H]1C[C@@H](Oc2ncc(OC)c3ccc(Cl)cc23)CN1C(=O)[C@@H](NC(=O)OC(C)(C)C)C(C)(C)C)C(=O)NS(=O)(=O)C1CC1` [Form T1F-1/2, N-(tert-butoxycarbonyl)-3-methyl-L-valyl-(4R)-4-((7-chloro-4-methoxy-1-isoquinolinyl)oxy)-N-((1R,2S)-1-((cyclopropylsulfonyl)carbamoyl)-2-vinylcyclopropyl)-L-prolinamide], the “form stability in water” value in data set [1] is listed as “rapidly converts to H-1”. Moreover, the “relative humidity at which Compound (I) exists as this crystalline form” value in data set [2] is on record as below 15 % relative humidity.
